Legend:
Format in all cases: in vivo
[1] = system: sweet sensitive panelists; assay: Paired comparison of sweetness enhancers in water versus sucrose (Example 4, modified)
Method: Paired Comparisons of Sweetness Enhancers and Mixtures Thereof in Water and 7% Sucrose
Samples of sweetness enhancers were prepared in water or 7% sucrose. One, two or three sweetness enhancers were used in a sample. All samples were presented to panelists at ambient temperature. The sensory evaluation was conducted using a paired comparison method. […] Samples were paired randomly and presented in unidentifiable pairs of two (left and right) to the panelists in random order. The sample on the left was tasted first, followed by rinsing the mouth with water, then tasting the sample on the right. Once completing the sequence, each panelist ranked the pair of samples for sweetness then evaluated samples with respect to one another with the following descriptors (in ascending order): […]

[2] = system: sweet sensitive subjects; assay: Sweetness quality evaluation (time of onset, localization, duration)
Method: Rebaudioside A (99%+, purified from plant extract, Sweet Aloha Farms, LLC) (1 ppm, 10 ppm, 20 ppm, 30 ppm) in 2% sucrose samples was evaluated for the qualities of the sweetness of the samples (time of onset, localization, duration). The sensory evaluations were conducted as follows. All samples were presented at ambient temperature in 15 ml aliquots and presented blindly to sweet sensitive subjects of varying sweet sensitivity. Subjects tasted the samples and were asked to evaluate the quality of sweetness. Sucrose solutions (2% and 7%) were presented as references.
Rebaudioside A (99%+, purified from plant extract, Sweet Aloha Farms, LLC) (1 ppm, 10 ppm, 20 ppm, 30 ppm) in 7% sucrose samples were evaluated for the qualities of the sweetness of the samples (time of onset, localization, duration). The sensory evaluations were conducted as follows. All samples were presented at ambient temperature in 15 ml aliquots and presented blindly to sweet sensitive subjects of varying sweet sensitivity. Subjects tasted the samples and were asked to evaluate the quality of the sweetness. Sucrose solutions (2% and 7%) were presented as references to evaluate the sweetness of the rebaudioside A samples.
Stevioside extract (95%+, purified from plant extract, Apin Chemicals) (20 ppm, 30 ppm, 40 ppm, 50 ppm) was evaluated in 2% sucrose for the qualities of the sweetness of the samples (time of onset, localization, duration). The sensory evaluations were conducted as follows. All samples were presented at ambient temperature in 15 ml aliquots and presented blindly to sweet sensitive subjects of varying sweet sensitivity. Subjects tasted the samples and were asked to evaluate the sweetness qualities. Sucrose solutions (2% and 7%) were presented as references.
Stevioside (20 ppm, 30 ppm, 40 ppm, 50 ppm) was evaluated in 7% sucrose for the qualities of the sweetness of the samples (time of onset, localization, duration). The sensory evaluations were conducted as follows. All samples were presented at ambient temperature in 15 ml aliquots and presented blindly to sweet sensitive subjects of varying sweet sensitivity. Subjects tasted the samples and were asked to evaluate the sweetness qualities. Sucrose solutions (2% and 7%) were presented as references to evaluate the sweetness of the stevioside samples.

[3] = system: sweet sensitive panelists; assay: Comparative sensory evaluation of sweetness enhancers in sweetener solution or water (Example 1)
Method: Comparative sensory evaluation of sweetness enhancers in 2 or 7% sucrose
The test samples contained the potential sweetness enhancers in 0% sucrose (water), 2% sucrose, or 7% sucrose, and control samples of 0%, 2% and 7% sucrose without any additive. The sensory evaluations were conducted as follows. All samples were presented at ambient temperature in 15 ml aliquots to panels consisting of 5-9 sweet sensitive subjects of varying sweet sensitivity. After tasting each sample, the mouth was rinsed thoroughly with water at ambient temperature prior to tasting the next sample. The sucrose positive control (2% or 7%) was presented first and served as the sweetness reference to which all sweetness enhancer/sucrose combinations were directly compared.
One tasting sequence included tasting the sucrose control first, rinsing with water, tasting the sweetness enhancer/sucrose sample, rinsing with water followed by tasting the sucrose control again. Once the sequence was completed, each panelist chose the sample which was sweeter and evaluated the sweetness of each sample relative to one another.
In a second tasting sequence, this same procedure was followed for the water negative control versus the sweetness enhancer/water samples to determine the sweet taste due to the sweetness enhancer itself at each tested concentration.
Panelists evaluated the sweetness of the sweetness enhancer in water for each concentration. For their evaluation, panelists were allowed to compare any perceived sweetness of the sweetness enhancer to the 2% or 7% sucrose control to determine the relative intensity of sweetness. Mild sweet taste corresponds to the taste of 2% sucrose, strong sweet taste corresponds to the taste of 7% sucrose.
Alternatively to sucrose, the evaluation may be performed with another sweetener, for example, high fructose (55%) corn syrup (HFCS, containing 55% fructose and 45% glucose), erythritol, sucralose, aspartame, or acesulfame potassium (AceK).

C=C1C[C@@]23CC[C@H]4[C@@](C)(CCC[C@@]4(C)C(=O)O[C@@H]4O[C@H](CO)[C@@H](O)[C@H](O)[C@H]4O)[C@@H]2CC[C@]1(O[C@@H]1O[C@H](CO)[C@@H](O)[C@H](O)[C@H]1O[C@@H]1O[C@H](CO)[C@@H](O)[C@H](O)[C@H]1O)C3 [Stevioside]
Result of comparison ([1]; 20 ppm in water vs 0% sucrose): weakly sweeter
Result of comparison ([1]; 20 ppm in water vs 0.5% sucrose): notably less sweet
isointensity to sucrose solution ([1]; 30 ppm in water): 0.5 % sucrose
Result of comparison ([1]; 30 ppm in water vs 0% sucrose): weakly sweeter
Result of comparison ([1]; 30 ppm in water vs 0.5% sucrose): isosweet
Result of comparison ([1]; 30 ppm in water vs 1% sucrose): significantly less sweet
Result of comparison ([1]; 40 ppm in water vs 0.5% sucrose): notably sweeter
Result of comparison ([1]; 40 ppm in water vs 1% sucrose): less sweet
isointensity to sucrose solution ([1]; 40 ppm in water, by interpolation): 0.75 % sucrose
isointensity to sucrose solution ([1]; 50 ppm in water): 1 % sucrose
Result of comparison ([1]; 50 ppm in water vs 0.5% sucrose): sweeter
Result of comparison ([1]; 50 ppm in water vs 1% sucrose): isosweet
Result of comparison ([1]; 50 ppm in water vs 1.5% sucrose): significantly less sweet
Result of comparison ([1]; 60 ppm in water vs 1% sucrose): notably sweeter
Result of comparison ([1]; 60 ppm in water vs 1.5% sucrose): less sweet
isointensity to sucrose solution ([1]; 60 ppm in water, by interpolation): 1.25 % sucrose
Sensory evaluation of sweetness intensity (onset, localisation, duration) ([2]; 20 ppm in 2% sucrose): immediate onset, full mouth sweet, not lingering
Sensory evaluation of sweetness intensity (onset, localisation, duration) ([2]; 20 ppm in 7% sucrose): immediate onset, full mouth sweet, not lingering
Sensory evaluation of sweetness intensity (onset, localisation, duration) ([2]; 30 ppm in 2% sucrose): immediate onset, full mouth sweet, not lingering
Sensory evaluation of sweetness intensity (onset, localisation, duration) ([2]; 30 ppm in 7% sucrose): immediate onset, full mouth sweet, not lingering
Sensory evaluation of sweetness intensity (onset, localisation, duration) ([2]; 40 ppm in 2% sucrose): immediate onset, full mouth sweet, not lingering
Sensory evaluation of sweetness intensity (onset, localisation, duration) ([2]; 40 ppm in 7% sucrose): immediate onset, full mouth sweet, not lingering
Sensory evaluation of sweetness intensity ([3]; 20 ppm in 2% sucrose): notably sweeter than sucrose control
Sensory evaluation of sweetness intensity ([3]; 20 ppm in 7% sucrose): notably sweeter than sucrose control
Sensory evaluation of sweetness intensity ([3]; 20 ppm in water (Example 9A)): barely detectable sweetness
Sensory evaluation of sweetness intensity ([3]; 20 ppm in water (Example 9B)): barely detectable sweetness
Sensory evaluation of sweetness intensity ([3]; 30 ppm in 2% sucrose): much sweeter than sucrose control
Sensory evaluation of sweetness intensity ([3]; 30 ppm in 7% sucrose): notably sweeter than sucrose control
Sensory evaluation of sweetness intensity ([3]; 30 ppm in water (Example 9A)): very weak, late onsetting sweetness
Sensory evaluation of sweetness intensity ([3]; 30 ppm in water (Example 9B)): very weak, late onsetting sweetness
Sensory evaluation of sweetness intensity ([3]; 40 ppm in 2% sucrose): much sweeter than sucrose control
Sensory evaluation of sweetness intensity ([3]; 40 ppm in 7% sucrose): much sweeter than sucrose control
Sensory evaluation of sweetness intensity ([3]; 40 ppm in water (Example 9A)): weak late onsetting sweetness
Sensory evaluation of sweetness intensity ([3]; 40 ppm in water (Example 9B)): weak sweetness, late onsetting sweetness
Sensory evaluation of sweetness intensity ([3]; 50 ppm in 2% sucrose): much sweeter than sucrose control
Sensory evaluation of sweetness intensity ([3]; 50 ppm in 7% sucrose): much sweeter than sucrose control
Sensory evaluation of sweetness intensity ([3]; 50 ppm in water (Example 9A)): weak sweetness, faster onset than 40 ppm,
Sensory evaluation of sweetness intensity ([3]; 50 ppm in water (Example 9B)): weak sweetness, faster onset than 40 ppm,
Sensory evaluation of sweetness intensity ([3]; 60 ppm in 2% sucrose): substantially sweeter than sucrose control
Sensory evaluation of sweetness intensity ([3]; 60 ppm in 7% sucrose): substantially sweeter than sucrose control
Sensory evaluation of sweetness intensity ([3]; 60 ppm in water (Example 9A)): weak sweetness, faster onset than 50 ppm,
Sensory evaluation of sweetness intensity ([3]; 60 ppm in water (Example 9B)): weak sweetness, faster onset than 50 ppm,

Source: patent US20210015134A1, “CONSUMABLES” (Givaudan S.A., priority 2006, published 2021)
